Results published in patent US9861712B2, “Preparation of extremely small and uniform sized, iron oxide-based paramagnetic or pseudo-paramagnetic nanoparticles and MRI T1 contrast agents using the same” (Hanwha Chemical Corporation, priority 2010, dated 2018).

Tested on: rats
Experiment: In vivo MR imaging (dynamic time-resolved MR angiography, 3d-FLASH) of blood vessels
Procedure: Dynamic time-resolved MR angiography and 3d-FLASH images of rats were acquired using a wrist coil on a 3 T MRI scanner before and after the injection of 3 nm iron oxide nanoparticles capped by PO-PEG, prepared according to example 13 (dose: 2.5 mg Fe/kg). The pre-contrast images were subtracted from post-contrast images, and the resulting images were reconstructed using maximum intensity projection (MIP) protocol with OsriX (Version 3.8.1; 32 bit; OsiriX foundation, Geneva). Dynamic time-resolved MR angiography was obtained with an interpolated temporal resolution of 1.25 second and the following parameters: flip angle=20, ETL=1, TR=3.1 ms, TE=1.13 ms, field of view FOV=75×140 mm^2, matrix=256×106, slice thickness/gap=2.5 mm/0 mm, and NEX=1. The imaging parameters of 3d-FLASH are as follows: flip angle=25, ETL=1, TR=25 ms, TE=5.1 ms, field of view FOV=110×65 mm^2, matrix=256×169, slice thickness/gap=1.0 mm/0 mm, and NEX=2.
MR imaging using the 3 nm nanoparticles capped by glucose 6-phosphate was performed according to example 16.

blood half-life (in words): short blood half-life
SMILES: O=C([O-])CN1CCN(CC(=O)[O-])CCN([C@H](CO)[C@H](O)CO)CCN(CC(=O)[O-])CC1.[Gd+3] (racemic) [Gadovist]
contrast effect of in vivo MR image immediately after the injection (immediately after the injection): high contrast effect
time in which the bright signal vanished (in vivo MR image after injection): 2 min
